Measured values reported in ChEMBL document CHEMBL1649532, “Trypanocidal activity of 8-methyl-5'-{[(Z)-4-aminobut-2-enyl]-(methylamino)}adenosine (Genz-644131), an adenosylmethionine decarboxylase inhibitor” (Antimicrob Agents Chemother, 2009).
≈ marks a conversion by molar mass, not a printed value. Calls of active or inactive are those of the source. The calls are words filed in the database; no cut-off is given here.

Experiments:
[1] = test system: Trypanosoma brucei brucei; test: Trypanocidal activity against Trypanosoma brucei brucei EATRO infected in mouse assessed as mean survival time at 2 mg/kg, ip QD for 4 days; type: functional; conditions: route intraperitoneal
[2] = test system: Trypanosoma brucei rhodesiense; test: Trypanocidal activity against Trypanosoma brucei rhodesiense KETRI2002 infected in mouse assessed as average survival time at 10 mg/kg, ip BID administered 24 hrs postinfection; type: functional; conditions: route intraperitoneal
[3] = test system: Trypanosoma brucei brucei; test: Trypanocidal activity against Trypanosoma brucei brucei EATRO infected in mouse assessed as protection against trypanosomal infection at 25 mg/kg, ip QD for 4 days; type: functional, organism-based; design: dose 25 mg/kg
[4] = test system: Trypanosoma brucei rhodesiense; test: Trypanocidal activity against Trypanosoma brucei rhodesiense KETRI1992 infected in mouse assessed as average survival time at 50 mg/kg, ip QD administered 24 hrs postinfection; type: functional; conditions: route intraperitoneal
[5] = test system: Trypanosoma brucei rhodesiense; test: Trypanocidal activity against Trypanosoma brucei rhodesiense KETRI2002 infected in mouse assessed as average survival time at 25 mg/kg, ip QD administered 24 hrs postinfection; type: functional; conditions: route intraperitoneal
[6] = test system: Trypanosoma brucei brucei; test: Trypanocidal activity against Trypanosoma brucei brucei EATRO infected in mouse assessed as protection against trypanosomal infection at 2 mg/kg, ip BID for 4 days; type: functional, organism-based; design: dose 2 mg/kg
[7] = test system: Trypanosoma brucei brucei; test: Trypanocidal activity against Trypanosoma brucei brucei 667 infected in mouse assessed as average day of relapse of trypanosomal infection at 50 mg/kg, ip BID for 14 days; type: functional; conditions: route intraperitoneal
[8] = test system: Trypanosoma brucei rhodesiense; test: Trypanocidal activity against Trypanosoma brucei rhodesiense KETRI243 infected in mouse assessed as average survival time at 50 mg/kg, ip BID administered 24 hrs postinfection; type: functional; conditions: route intraperitoneal
[9] = test system: Trypanosoma brucei brucei; test: Trypanocidal activity against Trypanosoma brucei brucei 667 infected in mouse assessed as average day of relapse of trypanosomal infection at 100 mg/kg, ip BID for 7 days; type: functional; conditions: route intraperitoneal
[10] = test system: Trypanosoma brucei rhodesiense; test: Trypanocidal activity against Trypanosoma brucei rhodesiense KETRI243 infected in mouse assessed as protection against trypanosomal infection at 50 mg/kg, ip QD administered 24 hrs postinfection; type: functional, organism-based; design: dose 50 mg/kg
[11] = test system: Trypanosoma brucei rhodesiense; test: Trypanocidal activity against Trypanosoma brucei rhodesiense KETRI2002 infected in mouse assessed as cure rate at 10 mg/kg, ip BID administered 24 hrs postinfection; type: functional; conditions: route intraperitoneal
[12] = test system: Trypanosoma brucei brucei; test: Trypanocidal activity against Trypanosoma brucei brucei EATRO infected in mouse assessed as mean survival time at 5 mg/kg, ip QD for 4 days; type: functional; conditions: route intraperitoneal
[13] = test system: Trypanosoma brucei rhodesiense; test: Trypanocidal activity against Trypanosoma brucei rhodesiense KETRI1992 infected in mouse assessed as average survival time at 25 mg/kg, ip BID administered 24 hrs postinfection; type: functional; conditions: route intraperitoneal
[14] = test system: Trypanosoma brucei brucei; test: Trypanocidal activity against Trypanosoma brucei brucei EATRO infected in mouse assessed as protection against trypanosomal infection at 5 mg/kg, ip BID for 4 days; type: functional, organism-based; design: dose 5 mg/kg
[15] = test system: Trypanosoma brucei brucei; test: Trypanocidal activity against Trypanosoma brucei brucei 667 infected in mouse assessed as average day of relapse of trypanosomal infection at 10 mg/kg, ip BID for 4 days; type: functional; conditions: route intraperitoneal
[16] = test system: Trypanosoma brucei brucei; test: Trypanocidal activity against Trypanosoma brucei brucei EATRO infected in mouse assessed as mean survival time at 5 mg/kg, ip BID for 4 days; type: functional; conditions: route intraperitoneal
[17] = test system: Trypanosoma brucei brucei; test: Trypanocidal activity against Trypanosoma brucei brucei 667 infected in mouse assessed as average day of relapse of trypanosomal infection at 10 mg/kg, ip BID for 14 days; type: functional; conditions: route intraperitoneal
[18] = test system: Trypanosoma brucei rhodesiense; test: Trypanocidal activity against Trypanosoma brucei rhodesiense KETRI2002 infected in mouse assessed as average survival time at 10 mg/kg, ip QD administered 24 hrs postinfection; type: functional; conditions: route intraperitoneal
[19] = test system: Trypanosoma brucei rhodesiense; test: Trypanocidal activity against Trypanosoma brucei rhodesiense KETRI1992 infected in mouse assessed as protection against trypanosomal infection at 50 mg/kg, ip BID administered 24 hrs postinfection; type: functional, organism-based; design: dose 50 mg/kg
[20] = test system: Trypanosoma brucei brucei; test: Trypanocidal activity against Trypanosoma brucei brucei EATRO infected in mouse assessed as mean survival time at 10 mg/kg, ip BID for 4 days; type: functional; conditions: route intraperitoneal
[21] = test system: Trypanosoma brucei brucei; test: Trypanocidal activity against Trypanosoma brucei brucei 667 infected in mouse assessed as average day of relapse of trypanosomal infection at 25 mg/kg, ip BID for 7 days; type: functional; conditions: route intraperitoneal
[22] = test system: Trypanosoma brucei rhodesiense; test: Trypanocidal activity against Trypanosoma brucei rhodesiense KETRI2538 after 48 hrs; type: functional, organism-based; conditions: KETRI2538, 48 h
[23] = test system: Trypanosoma brucei brucei; test: Trypanocidal activity against Trypanosoma brucei brucei 667 infected in mouse assessed as average day of relapse of trypanosomal infection at 10 mg/kg, ip BID for 7 days; type: functional; conditions: route intraperitoneal
[24] = test system: Trypanosoma brucei rhodesiense; test: Trypanocidal activity against Trypanosoma brucei rhodesiense KETRI243 infected in mouse assessed as average survival time at 25 mg/kg, ip QD administered 24 hrs postinfection; type: functional; conditions: route intraperitoneal
[25] = test system: Trypanosoma brucei rhodesiense; test: Trypanocidal activity against Trypanosoma brucei rhodesiense KETRI1992 infected in mouse assessed as cure rate at 50 mg/kg, ip BID administered 24 hrs postinfection; type: functional; conditions: route intraperitoneal
[26] = test system: Trypanosoma brucei brucei; test: Trypanocidal activity against Trypanosoma brucei brucei EATRO infected in mouse assessed as mean survival time at 50 mg/kg, ip QD for 4 days; type: functional; conditions: route intraperitoneal
[27] = test system: Trypanosoma brucei rhodesiense; test: Trypanocidal activity against Trypanosoma brucei rhodesiense KETRI243 infected in mouse assessed as average survival time at 10 mg/kg, ip QD administered 24 hrs postinfection; type: functional; conditions: route intraperitoneal
[28] = test system: Trypanosoma brucei rhodesiense; test: Trypanocidal activity against Trypanosoma brucei rhodesiense KETRI2002 infected in mouse assessed as average survival time at 25 mg/kg, ip BID administered 24 hrs postinfection; type: functional; conditions: route intraperitoneal
[29] = test system: Trypanosoma brucei rhodesiense; test: Trypanocidal activity against Trypanosoma brucei rhodesiense KETRI243 infected in mouse assessed as average survival time at 25 mg/kg, ip BID administered 24 hrs postinfection; type: functional; conditions: route intraperitoneal
[30] = test system: Trypanosoma brucei brucei; test: Trypanocidal activity against Trypanosoma brucei brucei EATRO infected in mouse assessed as mean survival time at 1 mg/kg, ip QD for 4 days; type: functional; conditions: route intraperitoneal
[31] = test system: Trypanosoma brucei rhodesiense; test: Trypanocidal activity against Trypanosoma brucei rhodesiense KETRI243 infected in mouse assessed as average survival time at 10 mg/kg, ip BID administered 24 hrs postinfection; type: functional; conditions: route intraperitoneal
[32] = test system: Trypanosoma brucei brucei; test: Trypanocidal activity against Trypanosoma brucei brucei EATRO infected in mouse assessed as mean survival time at 2.5 mg/kg, ip QD for 4 days; type: functional; conditions: route intraperitoneal
[33] = test system: Trypanosoma brucei brucei; test: Trypanocidal activity against Trypanosoma brucei brucei EATRO infected in mouse assessed as cure rate at 1 mg/kg, ip QD for 4 days; type: functional; conditions: route intraperitoneal
[34] = test system: Trypanosoma brucei brucei; test: Trypanocidal activity against Trypanosoma brucei brucei EATRO infected in mouse assessed as protection against trypanosomal infection at 2.5 mg/kg, ip BID for 4 days; type: functional, organism-based; design: dose 2.5 mg/kg
[35] = test system: Trypanosoma brucei brucei; test: Trypanocidal activity against Trypanosoma brucei brucei EATRO infected in mouse assessed as mean survival time at 50 mg/kg, ip BID for 4 days; type: functional; conditions: route intraperitoneal
[36] = test system: Trypanosoma brucei rhodesiense; test: Trypanocidal activity against Trypanosoma brucei rhodesiense KETRI2002 infected in mouse assessed as cure rate at 50 mg/kg, ip BID administered 24 hrs postinfection; type: functional; conditions: route intraperitoneal
[37] = test system: Trypanosoma brucei brucei; test: Trypanocidal activity against Trypanosoma brucei brucei EATRO infected in mouse assessed as mean survival time at 2.5 mg/kg, ip BID for 4 days; type: functional; conditions: route intraperitoneal
[38] = test system: Trypanosoma brucei rhodesiense; test: Trypanocidal activity against Trypanosoma brucei rhodesiense KETRI2002 infected in mouse assessed as average survival time at 50 mg/kg, ip QD administered 24 hrs postinfection; type: functional; conditions: route intraperitoneal
[39] = test system: Trypanosoma brucei brucei; test: Trypanocidal activity against Trypanosoma brucei brucei EATRO infected in mouse assessed as mean survival time at 25 mg/kg, ip BID for 4 days; type: functional; conditions: route intraperitoneal

Q: How did the MST [1] turn out when `Cc1nc2c(N)ncnc2n1[C@@H]1O[C@H](CN(C)C/C=C\CN)[C@@H](O)[C@H]1O` was run?
A: The MST was over 35 days.

Q: What about the MST [2] of the same compound?
A: The MST was 21.5 days.

Q: And the Activity [3]?
A: The Activity was “Active”.

Q: And the MST [4]?
A: The MST was 20.2 days.

Q: What about the MST [5] of the same compound?
A: Its MST is 20 days.

Q: And the Activity [6]?
A: The Activity was “Active”.

Q: What about the MST [7] of the same compound?
A: Its MST is 63.4 days.

Q: And the MST [8]?
A: The MST was 23.3 days.

Q: What about the MST [9] of the same compound?
A: The MST was 68.8 days.

Q: And the Activity [10]?
A: Its Activity is “inactive”.

Q: What about the Activity [11] of the same compound?
A: Its Activity is 60%.

Q: And the MST [12]?
A: The MST was over 35 days.

Q: And the MST [13]?
A: The MST was 23 days.

Q: What about the Activity [14] of the same compound?
A: The Activity was “Active”.

Q: And the MST [15]?
A: The MST was 36 days.

Q: And the MST [16]?
A: The MST was over 35 days.

Q: And the MST [17]?
A: The MST was 59.8 days.

Q: And the MST [18]?
A: Its MST is 16 days.

Q: And the Activity [19]?
A: The Activity was “inactive”.

Q: And the MST [20]?
A: Its MST is over 35 days.

Q: And the MST [21]?
A: The MST was 61.7 days.

Q: And the IC50 [22]?
A: Its IC50 is 0.3 ng/mL (≈ 0.825 nM).

Q: What about the MST [23] of the same compound?
A: Its MST is 53 days.

Q: And the MST [24]?
A: The MST was 14 days.

Q: What about the Activity [25] of the same compound?
A: Its Activity is 100%.

Q: And the MST [26]?
A: The MST was over 35 days.

Q: What about the MST [27] of the same compound?
A: Its MST is 13.2 days.

Q: What about the MST [28] of the same compound?
A: The MST was 19.3 days.

Q: And the MST [29]?
A: Its MST is 18.75 days.

Q: What about the MST [30] of the same compound?
A: Its MST is 13.5 days.

Q: And the MST [31]?
A: Its MST is 14.8 days.

Q: What about the MST [32] of the same compound?
A: Its MST is 21 days.

Q: What about the Activity [33] of the same compound?
A: Its Activity is over 50%.

Q: And the Activity [34]?
A: The Activity was “Active”.

Q: What about the MST [35] of the same compound?
A: Its MST is over 35 days.

Q: And the Activity [36]?
A: The Activity was 80%.

Q: What about the MST [37] of the same compound?
A: Its MST is over 35 days.

Q: And the MST [38]?
A: Its MST is 21 days.

Q: What about the MST [39] of the same compound?
A: Its MST is over 35 days.
